target: Ras-related C3 botulinum toxin substrate 1 (Mus musculus, UniProt P63001); test: inhibition of wildtype Rac1 nucleotide loading – biochemical, multiplex bead flow cytometry, dose response (AID 1340)

Going from `O=C(O)/C=C/c1cn(Cc2ccccc2)nc1-c1cccs1` [(E)-3-(1-benzyl-3-thiophen-2-ylpyrazol-4-yl)prop-2-enoic acid] to `O=C(O)/C=C/c1cn(Cc2ccccc2)nc1-c1ccc(Cl)cc1` [(E)-3-[1-benzyl-3-(4-chlorophenyl)pyrazol-4-yl]acrylic acid], the EC50 falls from 2.28 µM to 0.164 µM (14-fold). The second is the more potent here.

First: COc1cc(SC#N)ccc1N=Cc1c(C)[nH]n(-c2ccc(C)c(C)c2)c1=O [[4-[[(Z)-[1-(3,4-dimethylphenyl)-3-methyl-5-oxidanylidene-pyrazol-4-ylidene]methyl]amino]-3-methoxy-phenyl] thiocyanate]
Second: COc1ccc(C(=O)CC=Nc2ccc(S(=O)(=O)Nc3nc(C)cc(C)n3)cc2)cc1OC [4-[3-(3,4-Dimethoxy-phenyl)-3-oxo-propenylamino]-N-(4,6-dimethyl-pyrimidin-2-yl)-benzenesulfonamide]
The EC50 of the first is 3.2-fold lower: 0.966 µM for the first, 3.12 µM for the second. The first is the more potent here.

Going from `O=C(C#Cc1ccccc1)c1cccc([N+](=O)[O-])c1` [1-(3-nitrophenyl)-3-phenyl-2-propyn-1-one] to `O=C(O)c1ccccc1OCc1ccccc1Br` [2-(2-bromobenzyl)oxybenzoic acid], the EC50 falls from 19.2 µM to 0.151 µM (130-fold). The second is the more potent here.

Compared with `O=C(O)CCN1C(=O)/C(=C/c2ccc(-c3nc4ccccc4s3)o2)SC1=S` [3-[(5Z)-5-[[5-(1,3-benzothiazol-2-yl)furan-2-yl]methylidene]-4-oxo-2-sulfanylidene-1,3-thiazolidin-3-yl]propanoic acid], `O=C(O)c1ccc(COc2ccccc2Cl)o1` [5-[(2-chloranylphenoxy)methyl]furan-2-carboxylic acid] is 27-fold higher in EC50: 0.976 µM for the first, 26.3 µM for the second. The first is the more potent here.

Compared with `O=C(Nc1nc(-c2ccc(S(=O)(=O)N3CCCC3)cc2)cs1)c1ccco1` [MLS000049286], `N=C(N)NS(=O)(=O)c1ccc(NC(=S)NC(=O)c2ccc3c(c2)OCO3)cc1` [MLS000621545] is 1.6-fold higher in EC50: 1.76 µM for the first, 2.8 µM for the second. The first is the more potent here.

First: Cc1cc(C)c(C)c(C(=O)c2ccccc2C(=O)O)c1C [2-(2,3,5,6-tetramethylbenzoyl)benzoic acid]
Second: Cc1cc(C(=O)Oc2ccccc2C(=O)O)c(C)o1 [2-(2,5-dimethyl-3-furoyl)oxybenzoic acid]
The EC50 of the first is 22-fold higher: 2.24 µM for the first, 0.102 µM for the second. The second is the more potent here.

Compared with `O=C(O)c1ccccc1NCCc1ccc(Cl)cc1` [2-[2-(4-chlorophenyl)ethylamino]benzoic acid], `O=C(O)c1ccccc1NCc1ccccc1Cl` [2-[(2-chlorobenzyl)amino]benzoic acid] is 1.7-fold lower in EC50: 1.52 µM for the first, 0.899 µM for the second.

`OC(CNCCc1ccc(Cl)cc1)COc1ccc2ccccc2c1` (configuration not stated) [1-[2-(4-chlorophenyl)ethylamino]-3-(2-naphthalenyloxy)-2-propanol] and `O=C(COc1ncnc2cc([N+](=O)[O-])ccc12)NCCc1ccc(Cl)cc1` [MLS000335629] are within 1.5-fold of each other in EC50: 7.19 µM for the first, 5.41 µM for the second.

First: COc1ccccc1NCc1sc(C(=O)O)cc1C [4-methyl-5-(o-anisidinomethyl)-2-thenoic acid]
Second: COc1ccc(Cl)cc1NCc1sc(C(=O)O)cc1C [5-[(5-chloro-2-methoxy-anilino)methyl]-4-methyl-2-thenoic acid]
The EC50 of the first is 8.8-fold higher: 16 µM for the first, 1.82 µM for the second.

First: Cc1cc(C)cc(N=Cc2[nH]c3ccc(Br)c(Cl)c3c2O)c1 [(2Z)-5-bromo-4-chloro-2-[(3,5-dimethylanilino)methylidene]-1H-indol-3-one]
Second: COc1cc(CN=Nc2nnc3c(n2)[nH]c2ccccc23)ccc1O
The EC50 of the first is 4.8-fold higher: 3.03 µM for the first, 0.634 µM for the second.

First: CCOC(=O)CN(C(=O)CSc1nnc2c(n1)[nH]c1ccc(OC)cc12)c1ccc(F)cc1 [ethyl 2-[(4-fluorophenyl)-[2-[(8-methoxy-5H-[1,2,4]triazino[5,6-b]indol-3-yl)sulfanyl]ethanoyl]amino]ethanoate]
Second: CCOC(=O)c1nc(Nc2ccc(C(C)=O)cc2)c2ccccc2n1 [4-(4-acetylanilino)-2-quinazolinecarboxylic acid ethyl ester]
The EC50 of the first is 3.7-fold lower: 0.923 µM for the first, 3.4 µM for the second.

First: O=C1/C(=C\c2cccnc2)Sc2ccccc21 [(2E)-2-(3-pyridinylmethylidene)-1-benzothiophen-3-one]
Second: CCOc1ccc(/C=C2\SC(N3CCc4ccccc4C3)=NC2=O)cc1 [(5Z)-2-(3,4-dihydro-1H-isoquinolin-2-yl)-5-(4-ethoxybenzylidene)-2-thiazolin-4-one]
The EC50 of the first is 23-fold higher: 93.1 µM for the first, 4.02 µM for the second. The second is the more potent here.

Compared with `Cc1cccc(-n2nc(CC#N)c(C#N)c2N)c1` [5-amino-3-(cyanomethyl)-1-(3-methylphenyl)-4-pyrazolecarbonitrile], `Cc1cc(NC(=O)CSc2nc(O)c(C#N)c(-c3ccccc3)n2)no1` [2-[(5-cyano-4-oxidanylidene-6-phenyl-1H-pyrimidin-2-yl)sulfanyl]-N-(5-methyl-1,2-oxazol-3-yl)ethanamide] is 3-fold lower in EC50: 28.4 µM for the first, 9.54 µM for the second.

First: Cc1sc2nc3ccc(NCc4ccco4)nn3c(=O)c2c1C [7-(2-furanylmethylamino)-2,3-dimethyl-4-thieno[1,2]pyrimido[4,5-b]pyridazinone]
Second: CCn1nc(C(=O)OCC(=O)c2cc(C)n(Cc3cccs3)c2C)c2ccccc2c1=O [3-ethyl-4-keto-phthalazine-1-carboxylic acid [2-[2,5-dimethyl-1-(2-thenyl)pyrrol-3-yl]-2-keto-ethyl] ester]
The EC50 of the first is 10-fold higher: 9.21 µM for the first, 0.892 µM for the second. The second is the more potent here.

Going from `CCCc1nc2c(=O)n(C)c(=O)nc-2n(C)n1` [1,6-dimethyl-3-propyl-pyrimido[5,4-e][1,2,4]triazine-5,7-dione] to `CCN(CC)c1ccc2cc(-c3nc(-c4ccc(OC)cc4)cs3)c(=O)oc2c1` [7-(diethylamino)-3-[4-(4-methoxyphenyl)-1,3-thiazol-2-yl]chromen-2-one], the EC50 falls from 0.623 µM to 0.372 µM (1.7-fold). The second is the more potent here.

First: N#Cc1c(-c2ccccc2)nc(SCC(=O)Nc2ccccc2)[nH]c1=O [2-[(5-cyano-4-oxo-6-phenyl-1H-pyrimidin-2-yl)thio]-N-phenylacetamide]
Second: Cc1ccccc1C(=O)Nc1ccc2c(C#N)c3nc4ccccc4nc3n2c1 [MLS000591720]
The EC50 of the first is 12-fold higher: 3.54 µM for the first, 0.291 µM for the second. The second is the more potent here.

First: CC(=O)c1c(C)[nH]c(C(=O)N2CCc3ccccc3C2)c1C [1-[5-(3,4-dihydro-1H-isoquinolin-2-ylcarbonyl)-2,4-dimethyl-1H-pyrrol-3-yl]ethanone]
Second: COCCn1c(=S)[nH]c2cc(C(=O)N3CCc4ccccc4C3)ccc2c1=O [SMR000310652]
The EC50 of the first is 8.5-fold higher: 5.13 µM for the first, 0.605 µM for the second.

Compared with `Cc1ccc(C)c(OCCn2cc(C(=O)O)c3ccccc32)c1` [1-[2-(2,5-dimethylphenoxy)ethyl]-3-indolecarboxylic acid], `O=C(O)c1cn(CCOc2ccccc2)c2ccccc12` [1-(2-phenoxyethyl)-3-indolecarboxylic acid] is 6.8-fold higher in EC50: 0.802 µM for the first, 5.44 µM for the second.

First: COc1cc(C=NNC(=O)c2sc(N)nc2C)cc(OC)c1OC [2-amino-4-methyl-N-[(3,4,5-trimethoxyphenyl)methylideneamino]-5-thiazolecarboxamide]
Second: CC(C)Oc1ccc(C=NNC(=O)c2ccc(N(Cc3ccccc3)S(C)(=O)=O)cc2)cc1 [4-[benzyl(mesyl)amino]-N-[(4-isopropoxybenzylidene)amino]benzamide]
The EC50 of the first is 3.1-fold lower: 1.67 µM for the first, 5.17 µM for the second.

`COc1ccc(-c2nnc(SCC(=O)c3cccs3)o2)cc1` [2-[[5-(4-methoxyphenyl)-1,3,4-oxadiazol-2-yl]sulfanyl]-1-thiophen-2-yl-ethanone] and `Cc1cc(C(=O)Cn2nc(C(=O)O)c3ccccc3c2=O)c(C)n1-c1ccc(OC(F)F)cc1` [3-[2-[1-[4-(difluoromethoxy)phenyl]-2,5-dimethyl-3-pyrrolyl]-2-oxoethyl]-4-oxo-1-phthalazinecarboxylic acid] are within 1.5-fold of each other in EC50: 6.39 µM for the first, 5.9 µM for the second.

Going from `NC(=S)NNC1=c2cc(F)ccc2=NC1=O` [[(5-fluoro-2-oxoindol-3-yl)amino]thiourea] to `O=C(NNC(=S)NCc1ccc(Cl)cc1)c1ccc(Br)o1` [1-[(5-bromanylfuran-2-yl)carbonylamino]-3-[(4-chlorophenyl)methyl]thiourea], the EC50 falls from 3.46 µM to 0.0857 µM (40-fold). The second is the more potent here.

First: O=C(O)c1ccccc1Sc1ncnc2sc3c(c12)CCC3
Second: CN1C(=O)N(C)c2ccc(C=O)c3cccc1c23 [1,3-dimethyl-2-oxidanylidene-perimidine-6-carbaldehyde]
The EC50 of the first is 17-fold lower: 1.22 µM for the first, 20.8 µM for the second. The first is the more potent here.

First: CC(C)C(NCc1c(Cl)cccc1Cl)C(=O)O (configuration not stated) [2-[(2,6-dichlorobenzyl)amino]-3-methyl-butyric acid]
Second: O=C(NC1CCCCC1)c1cc([N+](=O)[O-])n[nH]1 [MLS000559279]
The EC50 of the first is 9.5-fold lower: 5.8 µM for the first, 55.3 µM for the second.

For `CC1(C)Cc2c(sc(NC(=S)NC(=O)c3ccccc3)c2C(=O)O)CO1` [2-(benzoylcarbamothioylamino)-5,5-dimethyl-4,7-dihydrothieno[2,3-c]pyran-3-carboxylic acid], the EC50 was 0.0806 µM.

Source: BindingDB's records for doi:10.7270/Q2377749 (Nmmlsc, 2010)
